Measurements reported in patent publication US20240325358A1, “PHARMACEUTICAL COMPOSITION FOR PREVENTION OR TREATMENT OF ALLERGIC SKIN DISEASE OR SKIN PRURITUS” (CUePEAK BIO. Co., Ltd., priority 2023, published 2024).

What was measured:
[1] = test system: normal human epidermal keratinocytes (NHEK); experiment: Cell differentiation degree in normal human epidermal keratinocytes; assay type: cell-based; settings: 24 hours of treatment, compared with untreated control group, FIG. 2
Description: (§1) • A human epidermal cell line (normal human epidermal keratinocyte; NHEK) is a human fetal transdermal cell line and was used after being distributed from ATCC.
(§2) It was a cell obtained from primary culture and was used for confirming biochemical changes within the cell by ABT-751 or TN-16 under normal conditions, not disease conditions. • Experimental animal: Since a hos:HR-1(hairless) mouse has no hair in skin disease research, it allows skin-related research to be performed by directly applying a drug on skin or inducing skin diseases by chemical or biological allergen.
The normal human epidermal keratinocytes (NHEK) in culture was treated with ABT-751 and TN-16, respectively to measure the expression amount of filaggrin and confirm a change in cell differentiation degree.
NHEK was treated with ABT-751 and TN-16 by concentrations of 0, 0.5, 1.0, and 2.5 μM, respectively, and after 24 hours of treatment, the expression amount of filaggrin and the cell differentiation degree were observed.

[2] = test system: HR-1 mouse skin; experiment: Skin barrier function test (skin moisture loss, skin barrier index) in HR-1 mouse; assay type: in vivo, hos:HR-1 mouse; settings: 4% formulation applied on back skin once a day, vs 0% formulation, effect grew with days of application, FIG. 4
Description: as §2
In addition, it has a skin thickness of about 0.4 mm at 8 to 10 weeks of age, which is similar to the skin of a human, and is useful for research on pathogenesis mechanism of skin diseases and confirmation of biochemical changes in skin tissue.
2 hours after applying ABT-751 or TN-16, skin moisture loss, a skin barrier index, and a comprehensive index on the application area were measured for 3 weeks with a precision measuring instrument (Courage-khazaka electronic GmbH, MPA10), and recorded.
ABT-751 and TN-16 of 0, 1, 2, and 4% formulations were applied on the back skin of a hairless hos:HR-1 mouse (hereinafter, referred to as HR-1 mouse) in the same amount once a day for 3 weeks, respectively.
After each application, skin moisture loss and a skin barrier index were measured by the method of the test example.
After applying the control group (0% formulation ABT-751 or 0% formulation TN-16) and ABT-751 or TN-16 of a 4% formulation, respectively, skin moisture loss and a skin barrier index were measured, and the results are shown in FIG. 4.

[3] = test system: filaggrin; experiment: Expression amount of filaggrin in HR-1 mouse back skin tissue (RT-qPCR and Western blot); assay type: in vivo, hos:HR-1 mouse; settings: HR-1 mouse back skin, 1, 2 and 4% formulations applied once a day, vs 0% formulation control; RNA and protein; FIGS. 3A to 3C
Description: as §2
In addition, it has a skin thickness of about 0.4 mm at 8 to 10 weeks of age, which is similar to the skin of a human, and is useful for research on pathogenesis mechanism of skin diseases and confirmation of biochemical changes in skin tissue. […]
The extracted RNA was reverse-transcribed with ImProm-II TM Reverse Transcription Kit (Promega) to synthesize cDNA, and then an amount of filaggrin was measured by a quantitative PCR (qPCR) through Real-Time PCR Detection System (Bio-Rad, CFX96). […]
The thin film was reacted with an ECL solution (Thermo Fisher), and the protein after the reaction was detected using a luminescence reaction measuring instrument (Fusion Solo, Vilber). […]
Each of RNA and protein was extracted from the back skin tissue on which ABT-751 or TN-16 was applied, respectively, by the method of the text example and the expression amount of filaggrin was measured, and the results are shown in FIG. 3.

[4] = test system: filaggrin; experiment: Expression amount of filaggrin in NHEK by RNA extraction and RT-qPCR; assay type: cell-based, human; settings: NHEK, 0, 0.5, 1.0 and 2.5 μM, after 24 hours of treatment; FIGS. 1A and 1B
Description: as §1, §2
A normal human epidermal keratinocyte (NHEK) on which ABT-751, TN-16, or a control sample was applied, or a mouse skin tissue was dissolved using a TRI reagent (MRC), and then RNA in cells was extracted using Rneasy Mini Kit (Qiagen).
The extracted RNA was reverse-transcribed with ImProm-II TM Reverse Transcription Kit (Promega) to synthesize cDNA, and then an amount of filaggrin was measured by a quantitative PCR (qPCR) through Real-Time PCR Detection System (Bio-Rad, CFX96).
The normal human epidermal keratinocytes (NHEK) in culture was treated with ABT-751 and TN-16, respectively to measure the expression amount of filaggrin and confirm a change in cell differentiation degree. […]

Structure (SMILES)	cell differentiation degree [1]	skin barrier index [2]	skin moisture loss [2]	expression amount of filaggrin in the skin tissue [3]	expression amount of filaggrin [4]
COc1ccc(S(=O)(=O)Nc2cccnc2Nc2ccc(O)cc2)cc1 [ABT-751, N-[2-[(4-Hydroxyphenyl)amino]pyridin-3-yl]-4-methoxybenzenesulfonamide]	significantly increased	increased	decreased	increased in a concentration-dependent manner	increased depending on the ABT-751 and TN-16 treatment concentrations
C/C(Nc1ccccc1)=C1/C(=O)NC(Cc2ccccc2)C1=O (stereo not drawn) [TN-16, 3-[1-(phenylamino)ethylidene]-5-(phenylmethyl)-2,4-pyrrolidinedione]	–	increased	decreased	increased in a concentration-dependent manner	increased depending on the ABT-751 and TN-16 treatment concentrations
